Measured values taken from patent publication US20240270821A1, “GIP/GLP1/GCG TRI-RECEPTOR AGONISTS AND USES THEREOF” (priority 2023, published 2024).
Where two headings read alike, the source gives them in different places. Starred links: 1 amine or outer side, 2 acyl side, 3 side chain; linkers in the order of their positions; H or OH if unused. Non-standard residues stand in square brackets, D forms with d. Groups on a side chain read outwards from the residue. *: point of attachment. C18 diacid = O=C(O)CCCCCCCCCCCCCCCCC(=O)*; αMePhe(2-F) = C[C@](N)(Cc1ccccc1F)C(=O)O; γGlu = O=C(O)[C@H](CCC(=O)[*:2])N[*:1]; αMe4Pal = C[C@](N)(Cc1ccncc1)C(=O)O; αMeY = C[C@](N)(Cc1ccc(O)cc1)C(=O)O; 4Pal = N[C@@H](Cc1ccncc1)C(=O)O; αMeL = CC(C)C[C@](C)(N)C(=O)O; αMeS = C[C@](N)(CO)C(=O)O; Orn = NCCC[C@H](N)C(=O)O; Aib = CC(C)(N)C(=O)O

How the values were obtained:
Format in all cases: cell-based
hGIPR [1] = molecular target: T1, hGIPR (Homo sapiens, UniProt P48546); experiment: Functional cAMP activity in the presence of 1% HSA; settings: read-out: cAMP Rel EC50, hGIPR
T1 sequence (P48546 22-466): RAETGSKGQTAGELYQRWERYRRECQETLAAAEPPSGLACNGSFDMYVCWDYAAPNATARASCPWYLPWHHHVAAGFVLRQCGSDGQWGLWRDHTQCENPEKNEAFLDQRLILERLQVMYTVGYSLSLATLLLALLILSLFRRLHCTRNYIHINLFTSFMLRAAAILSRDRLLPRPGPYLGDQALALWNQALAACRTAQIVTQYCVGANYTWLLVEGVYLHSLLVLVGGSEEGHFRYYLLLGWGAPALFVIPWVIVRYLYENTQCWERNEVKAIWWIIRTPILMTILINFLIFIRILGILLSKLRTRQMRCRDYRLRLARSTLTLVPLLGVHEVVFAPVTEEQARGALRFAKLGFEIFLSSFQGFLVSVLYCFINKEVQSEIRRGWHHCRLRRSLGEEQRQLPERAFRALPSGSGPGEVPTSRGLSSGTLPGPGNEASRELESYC

hGLP-1R [2] = molecular target: T2, hGLP-1R (Homo sapiens, UniProt P43220); experiment: Functional cAMP activity in the presence of 1% HSA; settings: read-out: cAMP Rel EC50, hGLP-1R
human GcgR = human GcgR (Homo sapiens, UniProt P47871); experiment: Functional cAMP activity in the presence of 1% HSA; settings: read-out: cAMP Rel EC50, hGcgR
hGIPR [3] = molecular target: T1, hGIPR; experiment: Functional cAMP activation in the presence of 0.1% casein (no HSA); settings: read-out: Relative cAMP EC50, hGIPR;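 for Relative cAMP EC50, hGIPR: intracellular cAMP rise after 30 min at 37 °C read by HTRF against a standard curve, scaled between buffer alone (0%) and top control ligand concentration (100%), four-parameter fit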;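 for Relative cAMP EC50, hGLP-1R: intracellular cAMP rise after 30 min at 37 °C read by HTRF, normalized between buffer only (0%) and maximal control ligand (100%), four-parameter variable-slope fit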;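 for Relative cAMP EC50, hGcgR: intracellular cAMP rise after 30 min at 37 °C, read by HTRF against a cAMP standard curve, scaled from buffer only (0%) to maximal control ligand response (100%)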
hGLP-1R [4] = molecular target: T2, hGLP-1R; experiment: as above; settings: read-out: Relative cAMP EC50, hGLP-1R
hGcgR = hGcgR (Homo sapiens, UniProt P47871); experiment: as above; settings: read-out: Relative cAMP EC50, hGcgR;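 note: intracellular cAMP rise after 30 min at 37 °C, read by HTRF against a cAMP standard curve, scaled from buffer only (0%) to maximal control ligand response (100%)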
[5] = 0.1% casein, no HSA, geometric mean

T2 sequence (P43220 24-463): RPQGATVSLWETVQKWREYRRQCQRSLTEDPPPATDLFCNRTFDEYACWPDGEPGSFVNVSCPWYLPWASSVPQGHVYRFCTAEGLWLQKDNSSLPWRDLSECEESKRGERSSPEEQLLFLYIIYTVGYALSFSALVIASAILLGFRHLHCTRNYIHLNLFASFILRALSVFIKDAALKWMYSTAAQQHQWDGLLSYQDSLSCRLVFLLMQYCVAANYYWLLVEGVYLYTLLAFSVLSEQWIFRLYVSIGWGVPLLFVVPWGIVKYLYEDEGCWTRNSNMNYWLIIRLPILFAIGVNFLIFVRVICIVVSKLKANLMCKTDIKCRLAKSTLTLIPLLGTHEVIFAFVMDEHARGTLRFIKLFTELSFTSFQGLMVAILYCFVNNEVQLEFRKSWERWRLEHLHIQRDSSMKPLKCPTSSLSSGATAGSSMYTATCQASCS
hGcgR, sequence (P47871 26-477): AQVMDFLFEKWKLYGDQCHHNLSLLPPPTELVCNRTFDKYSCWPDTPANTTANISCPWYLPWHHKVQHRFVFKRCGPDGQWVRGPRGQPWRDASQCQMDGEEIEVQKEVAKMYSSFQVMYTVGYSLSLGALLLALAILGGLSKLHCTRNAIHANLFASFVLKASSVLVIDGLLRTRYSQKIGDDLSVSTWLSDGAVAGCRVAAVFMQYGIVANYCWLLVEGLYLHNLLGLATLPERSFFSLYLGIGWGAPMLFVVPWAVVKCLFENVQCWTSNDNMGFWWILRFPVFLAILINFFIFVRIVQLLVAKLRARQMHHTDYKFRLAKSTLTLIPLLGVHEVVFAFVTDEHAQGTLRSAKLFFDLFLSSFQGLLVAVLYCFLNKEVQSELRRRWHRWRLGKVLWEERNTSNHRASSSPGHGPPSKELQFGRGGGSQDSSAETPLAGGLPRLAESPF
human GcgR, sequence (P47871 26-477): as above

EC50 (hGIPR [1])	EC50 (hGLP-1R [2])	EC50 (human GcgR)	EC50 (hGIPR [3])	EC50 (hGLP-1R [4])	EC50 (hGcgR)	EC50 (hGIPR [3]; [5])	EC50 (hGLP-1R [4]; [5])	EC50 (hGcgR; [5])	Substance
0.76 nM	62.9 nM	669 nM	0.0221 nM	1.35 nM	21.2 nM	–	–	–	H-Y[Aib]QGT[αMePhe(2-F)]TSD[4Pal]SI[αMeL]LD[Orn]K([γGlu-γGlu-C18 diacid])AQ[αMe4Pal]EFI[dE][αMeY]LQEGGPSSGEPPPSGS-NH2 [Example 649]
1.28 nM	38.7 nM	520 nM	0.0213 nM	0.74 nM	4.26 nM	–	–	–	H-Y[Aib]QGT[αMePhe(2-F)]TSD[4Pal]SI[αMeL]LD[Orn]K([γGlu-γGlu-C18 diacid])AQ[αMe4Pal][Orn]FI[dE]YLIEGGPSSGEPPPEGT-NH2 [Example 541]
0.436 nM	14.2 nM	143 nM	0.00843 nM	0.28 nM	2.16 nM	–	–	–	H-Y[Aib]QGT[αMePhe(2-F)]TSD[4Pal]SI[αMeL]LD[Orn]K([γGlu-γGlu-C18 diacid])AQ[αMe4Pal][Orn]FI[dE][αMeY]LIEGGPSSGEPPPEAE-NH2 [Example 684]
0.395 nM	14.2 nM	104 nM	0.00663 nM	0.257 nM	1.35 nM	–	–	–	H-Y[Aib]QGT[αMePhe(2-F)]TSD[4Pal]SI[αMeL]LD[Orn]K([γGlu-γGlu-C18 diacid])AQ[αMe4Pal][Orn]FI[dE][αMeY]LIEGGPSSGEPPPEEG-NH2 [Example 681]
0.492 nM	14.3 nM	137 nM	0.00798 nM	0.214 nM	1.57 nM	–	–	–	H-Y[Aib]QGT[αMePhe(2-F)]TSD[4Pal]SI[αMeL]LD[Orn]K([γGlu-γGlu-C18 diacid])AQ[αMe4Pal][Orn]FI[dE][αMeY]LIEGGPSSGEPPPEGE-NH2 [Example 683]
0.595 nM	21.3 nM	157 nM	0.00903 nM	0.277 nM	2.41 nM	–	–	–	H-Y[Aib]QGT[αMePhe(2-F)]TSD[4Pal]SI[αMeL]LD[Orn]K([γGlu-γGlu-C18 diacid])AQ[αMe4Pal][Orn]FI[dE][αMeY]LIEGGPSSGEPPPEGTE-NH2 [Example 687]
0.61 nM	19.5 nM	182 nM	0.00881 nM	0.304 nM	2.06 nM	–	–	–	H-Y[Aib]QGT[αMePhe(2-F)]TSD[4Pal]SI[αMeL]LD[Orn]K([γGlu-γGlu-C18 diacid])AQ[αMe4Pal][Orn]FI[dE][αMeY]LIEGGPSSGEPPPEGTGE-NH2 [Example 688]
0.497 nM	18.7 nM	160 nM	0.00809 nM	0.308 nM	2.18 nM	–	–	–	H-Y[Aib]QGT[αMePhe(2-F)]TSD[4Pal]SI[αMeL]LD[Orn]K([γGlu-γGlu-C18 diacid])AQ[αMe4Pal][Orn]FI[dE][αMeY]LIEGGPSSGEPPPESE-NH2 [Example 685]
0.415 nM	14 nM	127 nM	0.00661 nM	0.212 nM	1.91 nM	–	–	–	H-Y[Aib]QGT[αMePhe(2-F)]TSD[4Pal]SI[αMeL]LD[Orn]K([γGlu-γGlu-C18 diacid])AQ[αMe4Pal][Orn]FI[dE][αMeY]LIEGGPSSGEPPPSGE-NH2 [Example 682]
0.565 nM	37.7 nM	124 nM	–	–	–	0.00819 nM	0.41 nM	0.97 nM	H-Y[Aib]QGT[αMePhe(2-F)]TSD[4Pal]SI[αMeL]LD[Orn][Orn]([γGlu-γGlu-C18 diacid])AQ[αMe4Pal][Orn]FI[dE][αMeY]LIEGGPSSGEPPPETE-NH2 [Example 1209]
4.84 nM	51 nM	427 nM	0.161 nM	0.705 nM	5.5 nM	–	–	–	H-Y[Aib]QGT[αMePhe(2-F)]TSD[4Pal][αMeS]ILLD[Orn]K([γGlu-γGlu-C18 diacid])AQ[Aib][Orn]FI[dE]YLIEGGPSSGEPPPEGAEE-NH2 [Example 604]
4.99 nM	49.5 nM	419 nM	0.102 nM	0.688 nM	5.43 nM	–	–	–	H-Y[Aib]QGT[αMePhe(2-F)]TSD[4Pal][αMeS]ILLD[Orn]K([γGlu-γGlu-C18 diacid])AQ[Aib][Orn]FI[dE]YLIEGGPSSGEPPPEGSEE-NH2 [Example 603]
5.51 nM	47.4 nM	366 nM	0.0866 nM	0.561 nM	4.14 nM	–	–	–	H-Y[Aib]QGT[αMePhe(2-F)]TSD[4Pal][αMeS]ILLD[Orn]K([γGlu-γGlu-C18 diacid])AQ[Aib][Orn]FI[dE]YLIEGGPSSGEPPPEGTEE-NH2 [Example 556]
10 nM	81.8 nM	937 nM	0.103 nM	0.931 nM	6.47 nM	–	–	–	H-Y[Aib]QGT[αMePhe(2-F)]TSD[4Pal][αMeS]ILLD[Orn]K([γGlu-γGlu-C18 diacid])AQ[Aib][Orn]FI[dE]YLIEGGPSSGEPPPEGTEEE-NH2 [Example 577]
5.2 nM	37.8 nM	465 nM	0.0694 nM	0.356 nM	3.79 nM	–	–	–	H-Y[Aib]QGT[αMePhe(2-F)]TSD[4Pal][αMeS]ILLD[Orn]K([γGlu-γGlu-C18 diacid])AQ[Aib][Orn]FI[dE]YLIEGGPSSGEPPPSGTE-NH2 [Example 531]
8.12 nM	56.8 nM	646 nM	0.0723 nM	0.528 nM	6.37 nM	–	–	–	H-Y[Aib]QGT[αMePhe(2-F)]TSD[4Pal][αMeS]ILLD[Orn]K([γGlu-γGlu-C18 diacid])AQ[Aib][Orn]FI[dE]YLIEGGPSSGEPPPSGTEE-NH2 [Example 576]
20.5 nM	37.2 nM	435 nM	0.235 nM	0.499 nM	5.04 nM	–	–	–	H-Y[Aib]QGT[αMePhe(2-F)]TSD[4Pal][αMeS]ILLD[Orn]K([γGlu-γGlu-C18 diacid])AQ[Aib][Orn]FI[dE][αMeY]LQEGGPSSGEPPPEGAEE-NH2 [Example 574]
7.26 nM	27.7 nM	237 nM	0.152 nM	0.337 nM	3.8 nM	–	–	–	H-Y[Aib]QGT[αMePhe(2-F)]TSD[4Pal][αMeS]ILLD[Orn]K([γGlu-γGlu-C18 diacid])AQ[Aib][Orn]FI[dE][αMeY]LQEGGPSSGEPPPSGAE-NH2 [Example 547]
16.2 nM	37.1 nM	484 nM	0.321 nM	0.438 nM	3.69 nM	–	–	–	H-Y[Aib]QGT[αMePhe(2-F)]TSD[4Pal][αMeS]ILLD[Orn]K([γGlu-γGlu-C18 diacid])AQ[Aib][Orn]FI[dE][αMeY]LQEGGPSSGEPPPSGAEE-NH2 [Example 575]

Substance	EC50 (hGIPR [1])	EC50 (hGLP-1R [2])	EC50 (human GcgR)	EC50 (hGIPR [3])	EC50 (hGLP-1R [4])	EC50 (hGcgR)	EC50 (hGIPR [3]; [5])	EC50 (hGLP-1R [4]; [5])	EC50 (hGcgR; [5])
H-Y[Aib]QGT[αMePhe(2-F)]TSD[4Pal]SI[αMeL]LD[Orn]K([γGlu-γGlu-C18 diacid])AQ[αMe4Pal]EFI[dE][αMeY]LLEGGPSSGAPPPSGE-NH2 [Example 617]	0.643 nM	67.4 nM	547 nM	0.00849 nM	0.534 nM	4.56 nM	–	–	–
H-Y[Aib]QGT[αMePhe(2-F)]TSD[4Pal]SI[αMeL]LD[Orn]K([γGlu-γGlu-C18 diacid])AQ[αMe4Pal]EFI[dE][αMeY]LQEGGPSSGAPPPSGS-NH2 [Example 647]	0.691 nM	36.1 nM	1210 nM	0.0177 nM	0.872 nM	18.8 nM	–	–	–
